Test results: ChEMBL document CHEMBL5260859, “Discovery and structure-activity relationship study of 2-piperazinyl-benzothiazole derivatives as potent and selective PPARδ agonists” (Bioorg Med Chem, 2023)
pEC50: −log10 of the molar value.

What was measured:
[1] = target: T1, Peroxisome proliferator-activated receptor delta (Mus musculus, UniProt P35396); test: Agonist activity at Gal4-fused mouse PPAR-delta ligand binding domain expressed in CHO-K1 cells assessed as receptor transactivation incubated for 24 to 48 hrs by luciferase reporter gene assay; format: cell-based
T1 sequence (P35396 whole entry): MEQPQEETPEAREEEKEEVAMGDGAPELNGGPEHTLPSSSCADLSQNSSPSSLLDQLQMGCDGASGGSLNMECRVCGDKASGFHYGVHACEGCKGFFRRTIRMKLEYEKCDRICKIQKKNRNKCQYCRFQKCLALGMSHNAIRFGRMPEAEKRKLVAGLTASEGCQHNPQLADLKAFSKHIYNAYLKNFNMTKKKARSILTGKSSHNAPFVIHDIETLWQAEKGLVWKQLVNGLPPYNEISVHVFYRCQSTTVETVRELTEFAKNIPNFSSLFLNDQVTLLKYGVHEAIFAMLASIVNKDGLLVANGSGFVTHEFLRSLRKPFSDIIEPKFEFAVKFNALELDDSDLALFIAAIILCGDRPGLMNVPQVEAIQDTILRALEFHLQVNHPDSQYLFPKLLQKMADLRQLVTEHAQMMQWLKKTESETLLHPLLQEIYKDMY

[2] = target: T2, Peroxisome proliferator-activated receptor gamma (Mus musculus, UniProt P37238); test: Agonist activity at Gal4-fused mouse PPAR-gamma ligand binding domain expressed in CHO-K1 cells assessed as receptor transactivation incubated for 24 to 48 hrs by luciferase reporter gene assay; format: cell-based
T2 sequence (P37238 whole entry): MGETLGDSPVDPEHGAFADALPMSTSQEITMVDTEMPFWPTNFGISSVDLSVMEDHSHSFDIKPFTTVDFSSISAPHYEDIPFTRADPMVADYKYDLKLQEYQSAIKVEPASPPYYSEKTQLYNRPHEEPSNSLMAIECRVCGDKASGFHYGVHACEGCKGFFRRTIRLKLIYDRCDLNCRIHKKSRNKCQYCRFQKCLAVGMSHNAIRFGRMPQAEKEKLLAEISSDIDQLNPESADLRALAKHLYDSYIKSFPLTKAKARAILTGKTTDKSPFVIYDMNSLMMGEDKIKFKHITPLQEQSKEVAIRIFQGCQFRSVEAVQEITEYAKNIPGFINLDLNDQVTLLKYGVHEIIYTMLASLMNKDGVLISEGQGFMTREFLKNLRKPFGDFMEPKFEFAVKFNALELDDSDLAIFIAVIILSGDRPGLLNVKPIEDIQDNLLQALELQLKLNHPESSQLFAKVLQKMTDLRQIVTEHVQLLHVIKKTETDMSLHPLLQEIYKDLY

[3] = target: T3, Peroxisome proliferator-activated receptor delta (Homo sapiens) (UniProt Q03181); test: Agonist activity at Gal4-fused human PPAR-delta ligand binding domain expressed in CHO-K1 cells assessed as receptor transactivation incubated for 24 to 48 hrs by luciferase reporter gene assay relative to control; format: cell-based; conditions: time lower 24.0 hrs, time upper […]
T3 sequence (whole entry): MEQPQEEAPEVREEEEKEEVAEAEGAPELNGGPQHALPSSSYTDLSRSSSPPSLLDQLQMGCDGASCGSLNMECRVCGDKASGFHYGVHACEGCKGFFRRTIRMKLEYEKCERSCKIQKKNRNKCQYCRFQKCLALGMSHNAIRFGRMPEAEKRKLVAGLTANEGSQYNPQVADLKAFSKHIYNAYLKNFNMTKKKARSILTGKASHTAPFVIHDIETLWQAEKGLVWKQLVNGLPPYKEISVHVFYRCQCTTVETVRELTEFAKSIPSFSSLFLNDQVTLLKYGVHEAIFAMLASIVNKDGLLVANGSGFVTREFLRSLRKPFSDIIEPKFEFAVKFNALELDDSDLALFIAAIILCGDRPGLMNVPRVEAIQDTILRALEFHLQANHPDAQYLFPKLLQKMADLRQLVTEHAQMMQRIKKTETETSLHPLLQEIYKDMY

[4] = target: T4, Peroxisome proliferator-activated receptor alpha (Mus musculus, UniProt P23204); test: Agonist activity at Gal4-fused mouse PPAR-alpha ligand binding domain expressed in CHO-K1 cells assessed as receptor transactivation incubated for 24 to 48 hrs by luciferase reporter gene assay; format: cell-based
T4 sequence (P23204 whole entry): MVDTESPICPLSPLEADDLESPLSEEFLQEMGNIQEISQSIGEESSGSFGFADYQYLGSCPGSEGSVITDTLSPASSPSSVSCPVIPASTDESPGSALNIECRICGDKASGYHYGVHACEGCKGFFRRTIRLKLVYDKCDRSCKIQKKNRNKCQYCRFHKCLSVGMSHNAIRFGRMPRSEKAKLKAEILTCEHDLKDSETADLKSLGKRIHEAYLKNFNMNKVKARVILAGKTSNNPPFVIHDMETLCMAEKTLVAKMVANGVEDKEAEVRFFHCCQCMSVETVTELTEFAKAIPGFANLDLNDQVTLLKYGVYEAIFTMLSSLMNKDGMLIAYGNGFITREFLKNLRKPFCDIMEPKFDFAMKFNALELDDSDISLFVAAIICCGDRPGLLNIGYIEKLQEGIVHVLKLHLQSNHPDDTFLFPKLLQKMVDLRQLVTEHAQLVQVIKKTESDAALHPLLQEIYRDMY

Homo sapiens = species: Homo sapiens; test: Selectivity ratio of EC50 for agonist activity at Gal4-fused human PPAR-alpha ligand binding domain expressed in CHO-K1 cells to EC50 for agonist activity at Gal4-fused human PPAR-delta ligand binding domain expressed in CHO-K1 cells; format: cell-based
[5] = target: T5, Peroxisome proliferator-activated receptor delta (Mus musculus) (UniProt P35396); test: Agonist activity at Gal4-fused mouse PPAR-delta ligand binding domain expressed in CHO-K1 cells assessed as receptor transactivation incubated for 24 to 48 hrs by luciferase reporter gene assay relative to control; format: cell-based; conditions: time lower 24.0 hrs, time upper […]
T5 sequence (whole entry): T1 sequence (P35396 whole entry)

[6] = target: T6, Peroxisome proliferator-activated receptor delta (Homo sapiens, UniProt Q03181); test: Agonist activity at Gal4-fused human PPAR-delta ligand binding domain expressed in CHO-K1 cells assessed as receptor transactivation incubated for 24 to 48 hrs by luciferase reporter gene assay; format: cell-based
T6 sequence (Q03181 whole entry): T3 sequence (whole entry)

[7] = target: T7, Peroxisome proliferator-activated receptor gamma (Homo sapiens, UniProt P37231); format: cell-based, CHO-K1
T7 sequence (P37231 whole entry): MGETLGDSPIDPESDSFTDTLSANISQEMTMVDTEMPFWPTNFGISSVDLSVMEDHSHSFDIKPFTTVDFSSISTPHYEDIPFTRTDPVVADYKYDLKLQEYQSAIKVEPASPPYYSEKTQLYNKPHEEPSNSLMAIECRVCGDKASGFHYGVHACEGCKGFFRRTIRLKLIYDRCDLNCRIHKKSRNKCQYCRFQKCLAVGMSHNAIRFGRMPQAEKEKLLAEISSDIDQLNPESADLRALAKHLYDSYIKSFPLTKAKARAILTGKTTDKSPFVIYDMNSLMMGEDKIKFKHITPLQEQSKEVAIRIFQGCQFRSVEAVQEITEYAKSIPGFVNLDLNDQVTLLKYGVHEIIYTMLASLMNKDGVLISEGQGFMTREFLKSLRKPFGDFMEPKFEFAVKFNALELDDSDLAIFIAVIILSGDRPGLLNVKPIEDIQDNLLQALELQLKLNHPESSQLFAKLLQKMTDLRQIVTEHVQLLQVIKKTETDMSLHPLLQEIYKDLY

Row | pEC50 [1] | pEC50 [2] | Emax [3] [%] | pEC50 [4] | Emax [5] [%] | pEC50 [6] | pEC50 [7] | SMILES | Ratio EC50 (Homo sapiens)
1 | 7.41 | 5.57 | 14 | 5.41 | 20.4 | 8.00 | 5.51 | Cc1cc(CC(=O)O)cc(CN2CCN(c3nc4ccc(C(F)(F)F)cc4s3)[C@@H](C)C2)c1 | 175
2 | 7.62 | 5.74 | 13.5 | 5.43 | 20.8 | 8.21 | 5.92 | Cc1cc(CC(=O)O)cc(CN2CCN(c3nc4ccc(C(F)(F)F)cc4s3)[C@H](C)C2)c1 | 258
